Test results published in PMC5259782, “Allosteric Inhibition of Phosphoenolpyruvate Carboxylases is Determined by a Single Amino Acid Residue in Cyanobacteria” (Scientific Reports, 2017).

How the values were obtained:
Experiment in all cases: malate dehydrogenase-coupled NADH assay, residual activity
Assay type in all cases: biochemical
SyPEPC = biological target: T1, SyPEPC (Synechocystis sp. PCC 6803, UniProt P74299); conditions: read-out: SyPEPC activity (in vitro)
T1 construct: gene ppc
T1 sequence (P74299 1-1034): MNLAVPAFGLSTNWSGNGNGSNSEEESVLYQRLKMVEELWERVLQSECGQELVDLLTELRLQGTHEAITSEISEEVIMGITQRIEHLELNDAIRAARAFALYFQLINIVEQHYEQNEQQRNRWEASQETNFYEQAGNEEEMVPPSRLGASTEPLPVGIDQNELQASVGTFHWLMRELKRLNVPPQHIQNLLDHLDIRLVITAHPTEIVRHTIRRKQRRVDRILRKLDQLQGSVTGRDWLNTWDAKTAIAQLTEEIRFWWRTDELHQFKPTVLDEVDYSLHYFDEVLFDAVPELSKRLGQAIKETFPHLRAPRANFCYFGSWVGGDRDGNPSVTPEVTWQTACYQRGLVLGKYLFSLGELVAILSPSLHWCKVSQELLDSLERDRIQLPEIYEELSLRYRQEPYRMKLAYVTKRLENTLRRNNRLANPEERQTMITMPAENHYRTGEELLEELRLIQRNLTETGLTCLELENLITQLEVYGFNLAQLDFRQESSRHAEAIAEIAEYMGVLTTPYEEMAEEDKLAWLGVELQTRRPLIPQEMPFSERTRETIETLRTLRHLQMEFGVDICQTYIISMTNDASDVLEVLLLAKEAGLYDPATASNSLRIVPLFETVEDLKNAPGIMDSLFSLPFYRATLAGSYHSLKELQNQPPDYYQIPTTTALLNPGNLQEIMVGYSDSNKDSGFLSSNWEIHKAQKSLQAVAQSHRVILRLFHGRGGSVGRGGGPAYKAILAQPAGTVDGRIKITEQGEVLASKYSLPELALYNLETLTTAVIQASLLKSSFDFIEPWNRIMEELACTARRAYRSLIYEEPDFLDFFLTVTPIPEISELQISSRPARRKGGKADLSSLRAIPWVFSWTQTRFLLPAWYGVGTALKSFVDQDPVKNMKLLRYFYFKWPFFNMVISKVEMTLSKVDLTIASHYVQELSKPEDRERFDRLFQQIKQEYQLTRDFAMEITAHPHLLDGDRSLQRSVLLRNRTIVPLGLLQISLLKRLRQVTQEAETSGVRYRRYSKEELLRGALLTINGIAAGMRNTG
Description: malate dehydrogenase-coupled NADH assay, residual activity on SyPEPC

AnPEPC [1] = biological target: T2, AnPEPC (Nostoc sp. PCC 7120 = FACHB-418, UniProt P28594); conditions: aspartate; allosteric
T2 construct: gene ppc
T2 sequence (P28594 whole entry): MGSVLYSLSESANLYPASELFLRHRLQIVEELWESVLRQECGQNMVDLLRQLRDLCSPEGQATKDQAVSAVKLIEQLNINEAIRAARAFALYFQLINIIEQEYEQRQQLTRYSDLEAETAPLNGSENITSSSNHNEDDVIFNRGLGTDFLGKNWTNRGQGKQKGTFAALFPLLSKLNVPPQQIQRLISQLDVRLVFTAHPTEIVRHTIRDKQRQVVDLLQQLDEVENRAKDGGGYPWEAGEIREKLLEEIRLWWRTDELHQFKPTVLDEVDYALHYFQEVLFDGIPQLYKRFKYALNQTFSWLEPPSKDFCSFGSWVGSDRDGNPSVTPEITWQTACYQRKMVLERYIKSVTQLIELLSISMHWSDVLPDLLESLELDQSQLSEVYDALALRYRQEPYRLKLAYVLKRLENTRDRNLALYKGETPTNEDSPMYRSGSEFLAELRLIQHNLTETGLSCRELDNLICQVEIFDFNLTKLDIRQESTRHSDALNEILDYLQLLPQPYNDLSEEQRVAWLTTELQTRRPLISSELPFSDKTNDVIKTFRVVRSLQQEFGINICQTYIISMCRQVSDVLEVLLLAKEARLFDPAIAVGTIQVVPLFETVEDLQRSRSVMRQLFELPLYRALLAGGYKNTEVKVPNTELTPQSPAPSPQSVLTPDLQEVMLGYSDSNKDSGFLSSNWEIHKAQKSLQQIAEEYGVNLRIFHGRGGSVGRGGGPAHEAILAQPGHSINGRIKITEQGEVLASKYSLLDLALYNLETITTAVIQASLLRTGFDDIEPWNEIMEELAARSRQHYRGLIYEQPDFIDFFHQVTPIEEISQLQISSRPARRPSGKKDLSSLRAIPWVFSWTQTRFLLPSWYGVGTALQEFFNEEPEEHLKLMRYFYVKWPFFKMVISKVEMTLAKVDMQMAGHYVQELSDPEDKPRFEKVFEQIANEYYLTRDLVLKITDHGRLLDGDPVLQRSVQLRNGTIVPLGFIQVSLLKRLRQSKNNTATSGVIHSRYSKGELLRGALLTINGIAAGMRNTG

AnPEPC [2] = biological target: T3, AnPEPC (Nostoc sp. PCC 7120 = FACHB-418, UniProt P28594, K946E); conditions: aspartate; allosteric
T3 construct: gene ppc
T3 sequence (P28594 whole entry K946E): as the sequence (P28594 whole entry) above, with K946E counted along it

N[C@@H](CC(=O)O)C(=O)O [aspartate]
activity at 1000 µM (SyPEPC): 85.2 ± 10.7%
% activity remaining (AnPEPC [1]): The inhibitory effect of aspartate on AnPEPC was not altered by this amino acid substitution
% activity remaining (AnPEPC [2]): The inhibitory effect of aspartate on AnPEPC was not altered by this amino acid substitution
